“Also recorded” adds a separate entry of the source. Where two headings read alike, the source gives them in different places.
What was measured:
[1] = tested on: human pancreatic islet cells; test: Toxicity against human pancreatic islet cells (C-peptide positive cell count); type: cell-based
Description: (§1) Human pancreatic islets from a deceased donor (Islet Research Resource ID: SAMN15400953) were purchased from the Integrated Islet Distribution program, dissociated, and cultured as described previously ([…] and Wagner. Curr. Protocols in Chem. Biol. 6: 157-168). In brief, 384 well plates (Perkin Elmer, CellCarrier Ultra, #6057300) were coated in ECM 2-3 days before the start of the experiment. HTB-9 cells (ATTC, 5637) were seeded at 10K/well into the 384 well plates and grown to confluence. All culture media was aspirated and 50 ul/well of 20 mM NH4OH in PBS (Sigma) was added. The plates were incubated at 37 C for 6 minutes, after which the NH4OH was pipetted up and down 4-5 times before being aspirated. The wells were then filled with 50 ul/well PBS until seeding with human islets. Human islets were pelleted and dissociated with StemPro Accutase (Life Technologies, A11105-01) at 37 C for 20-25 minutes followed by pipetting to mix 5-7 times. The dissociated islets were resuspended in CMRL 1066 medium (CellGro, cat. no. 15-110-CV) supplemented with 10% FBS, 1× L-glutamine, and 1× penicillin/streptomycin, filtered through a nylon mesh to remove large cell aggregates, and seeded at 10K/well density in the coated 384w plate. These islets were maintained in full CMRL media at 37 C, 95% humidity, and 5% CO2 with media changes every third day. For testing of free fatty acids for toxicity against human pancreatic islet cells (FIG. 8), C2, C3, and C4 free fatty acids were incubated with human pancreatic islet cells at concentrations of 250 μM, 500 μM, and 1 mM for 120 hours with one media change at 72 hours. The islets were subsequently fixed with 3% paraformaldehyde for 20 minutes, permeabilized with 0.2% TritonX-100 for another 20 minutes, and blocked for 3 hours at RT in 2% BSA in PBS (SeraCare, AP-45100-80). The islets were stained with C-peptide antibody (Developmental studies hybridoma bank at University of Iowa) at 1:100 in 2% BSA/PBS overnight rocking at 4 C, washed with PBS three times followed by once with 1% BSA/PBS, and then incubated with 568 Goat anti-rat (Life technologies, A11077) at 1:1000 and Hoechst (Thermo Fisher Scientific) at 1:1000 for one hour at RT. These islets were then imaged with the Operetta CLS High Content Screening System (#HH16000000, Perkin Elmer). The number of C-peptide positive cells in each well was quantified using Harmony software (PerkinElmer) and used as a proxy for cell viability.

MIN6 cells [2] = test: ER calcium levels (Fluo4, thapsigargin, FLIPR Tetra); type: cell-based, mouse; details: FFA treatment 24 h, relative to negative control (BSA)
Description: MIN6 cells were plated in 384 well plates (Aurora, Black 384 SQ Well 188 micron Film, #1022-10110) and treated with the FFA library for 24 h prior to readout. Cells were carefully washed three times with HBSS (with calcium, Thermo Fisher Scientific, #14025076) using an automated simultaneous pipettor (analytikjena CyBio® Well vario) and incubated with the fluorescent calcium indicator Fluo4 (2 μM, Life Technologies, #F14202) in DMEM without additions for 1 h at room temperature. Then, cells were washed again in HBSS (with calcium) and incubated for another 30 min at room temperature in DMEM without additions. Just before the readout, cells were washed in final calcium free assay buffer solution (140 mM NaCl, 5 mM Kcl, 10 mM HEPES, 2 mM MgCl2, 10 mM EGTA, 10 mM Glucose) and left with 25 ul assay volume per well. Assay plates were immediately transferred to the FLIPR Tetra® High-Throughput Cellular Screening System. The plate was recorded with a frequency of 1 Hz for 10 min. Baseline was recorded for 30 s before the automated liquid transfer system of the FLIPR added the SERCA inhibitor Thapsigargin (final concentration 10 μM) in calcium free assay buffer. The resulting passive efflux of calcium from the ER induced a transient cytosolic fluorescence signal and the peak amplitudes were used to indirectly quantify ER calcium levels (See Extended Data FIG. 3d). The resulting trajectories were corrected for a pipetting artifact and baseline normalized. Log 2 Fold changes were calculated according to plate location specific negative (BSA) controls. The exclusion of one outlier/FFA/plate (n=5) based on a 3 sigma cutoff was allowed. P-values were calculated with Student's t-test (two-sided) and corrected for multiple testing (Benjamin & Hochberg).

ATF4 and CHOP = test: Western blot, induction of the UPR; type: cell-based, mouse; details: MIN6 cells, BSA negative control
Description: MIN6 cells were lysed (#9803, Cell Signaling Technology) in the presence of protease inhibitors (#05892791001, Roche) and phosphatase inhibitors (#04906837001, Roche). Protein concentrations were quantified with the Pierce BCA Protein Assay Kit (#23225, Thermo Fisher Scientific). NuPAGE LDS sample buffer (#NP0008, Thermo Fisher Scientific) was added to normalized protein lysates together with NuPAGE reducing agent (#NP0004, Thermo Scientific). Lysates were heated to 95° C. for 5 min prior to SDS-PAGE gel electrophoresis (NuPAGE MES SDS running buffer, Thermo Fisher Scientific, #NP0002). Proteins were transferred to a nitrocellulose membrane (#1704158, BioRad) with the Trans-Blot® Turbo™ Blotting System (#1704155, BioRad) according to the manufacturer's protocol. Membranes were blocked in 5% Nonfat Dry Milk (#9999S, Cell Signaling Technology) in PBS with 0.1% Tween® 20 (PBS-T). Primary antibodies were incubated at 4° C. overnight, secondary antibodies were incubated at room temperature for 1 h. Super Signal West Dura (#34076, Thermo Fisher Scientific) or Super Signal West Pico (#34087, Thermo Fisher Scientific) were used to visualize immunoreactive bands imaged by G:BOX Chemi XT4:BOX-CHEMI-XT4, Syngene). Primary Antibodies used in this study: CPT1A: (Abcam #ab128568), ATF4: (CST #11815), CHOP: (CST #2895).

MIN6 cells [3] = type: cell-based
Description: For high throughput cell viability assay, cells were seeded in 384 well plates (Perkin Elmer, CellCarrier Ultra, #6057300) and treated for 24, 48 and 72 h with the FFA library. Just before readout, cell nuclei were stained with Hoechst (Thermo Fisher Scientific) for 1 h at 37° C. and imaged with the Opera Phenix High Content Screening System (#HH14000000, Perkin Elmer). Number of counted nuclei was determined with the image analysis software Harmony (PerkinElmer) and used as a proxy for cell viability. For low throughput validation experiments, cells were treated for 48 h with representative FFAs in CellCarrier-384 Ultra Microplates. Caspase 3/7 (Thermo Fisher Scientific, #C10423) activation and propidium iodide (Thermo Fisher Scientific, #P1304MP) staining were used to calculate the fraction of apoptotic cells and dead cells, respectively. Single cells were identified and counted after staining their nuclei with Hoechst. Fluorescence intensities were then measured and the threshold for Caspase 3/7 and propidium iodide positive staining was determined manually. Cell viability was calculated as the fraction of cells that were neither Caspase 3/7 nor propidium iodide positive.

NF-κB p65/RELA = test: RELA nuclear translocation, immunofluorescence; type: cell-based, mouse; details: MIN6 cells, 18 hours, BSA negative control
Description: Cells grown on 384 well CellCarrier Ultra microplates (#6057308, PerkinElmer) were fixed 10 min in PBS containing 4% PFA (Electron Microscopy Sciences), permeabilized 15 min in 0.5% Triton X-100 (Sigma-Aldrich), blocked for 1 h in blocking reagent (100 mM Tris HCL pH8; 150 mM NaCL; 5 g/L Blocking Reagent (#11096176001, Roche)) and treated for 1.5 h with primary antibody diluted in blocking reagent (NF-κB p65/RELA, Rabbit monoclonal antibody, 1:200, (#8242, Cell Signaling Technology). Cells were washed three times in PBS and incubated for 0.5 h with fluorescent-labeled secondary antibody in blocking solution (1:500, Alexa Fluor 568 Goat anti-Rabbit IgG, (#A11036, Thermo Fisher Scientific)). Cytoplasmic actin filaments were stained with Phalloidin conjugated with Alexa 647 (1:40, #A22287, Thermo Fisher Scientific) and nuclei were counterstained with Hoechst (1:2000, #H3570, Thermo Fisher Scientific). Cells were washed three times in PBS and imaged using the Opera Phenix High Content Screening System, #HH14000000, Perkin Elmer). A minimum of nine fields was acquired per well using 20× water immersion objectives in a confocal mode. Image analysis was performed using the Harmony software (PerkinElmer). Cell nuclei were first identified using Hoechst staining and nuclear region was defined for each cell. Phalloidin staining was then used to detect and define the cytoplasmic region of the cell. RELA fluorescent intensity was measured separately in the nuclear and cytoplasmic regions and a threshold for a nuclear translocation was defined using negative (BSA) and positive (TNFα) controls. For each well the fraction of cells identified for RELA nuclear translocation was calculated.

[4] = Toxicity against human pancreatic islet cells (C-peptide positive cell count); type: cell-based; details: female, dissociated human pancreatic islet cells; human islet cells, 120 hours; relative to the C3 and tested C4 free fatty acids; read-out: decrease of human pancreatic cell viability
Description: as §1

[5] = MIN6 cells, representative FFAs, 48 h

Structure (SMILES)	decrease of human pancreatic cell viability [1]	ER Ca^2+ levels (peak amplitude after thapsigargin 10 μM) (MIN6 cells [2])	induction of the UPR (ATF4 and CHOP protein abundance) (ATF4 and CHOP)	apoptosis (caspase activity) and cell death (propidium iodide positive nuclei); cell viability (MIN6 cells [3])	nuclear translocation of RELA (p65) (NF-κB p65/RELA)	human pancreatic cell viability ([1]; human islet cells, 250 μM, 500 μM, 1 mM, 120 hours, relative to C3 FFAs 9Z-octadecenoic acid, 6Z-octadecenoic acid and C4 FFA 10Z-nonadecenoic acid)	cytotoxicity at 120 h [4]	apoptosis (caspase activity) and cell death (propidium iodide positive nuclei); cell viability (MIN6 cells [3]; [5])
CCCCCCCC/C=C\CCCCCCCCCCCCC(=O)O [14Z-tricosenoic acid, 14(Z)-Tricosenoic acid]	more than 50%							
CCCCCCCC/C=C\CCCCCCCCCCCCCC(=O)O [15Z-tetracosenoic acid, 15(Z)-Tetracosenoic acid]	more than 50%							
CCCCC/C=C\C/C=C\C/C=C\C/C=C\CCCC(=O)O [AA, 5(Z),8(Z),11(Z),14(Z)-Eicosatetraenoic Acid]		increased	None	trended towards decreased viability				
CCCCCCCC/C=C\CCCCCCCCCCCC(=O)O [EA, 13(Z)-Docosenoic acid]		significant reduction of ER Ca^2+ levels	upregulation of ATF4 and CHOP protein abundance; also recorded: inducing ATF4 and CHOP		translocated to the nucleus; also recorded: Complete translocation of RELA from the cytosol to the nucleus	decreased human pancreatic cell viability	> 50%	consistently induced apoptosis and cell death; also recorded: reduced cell viability
CCCCC/C=C\C/C=C\C/C=C\CCCCC(=O)O [GLA, gamma-linoleic acid]		increased	None					trended towards decreased viability
CCCCCCCC/C=C\CCCCCCCC(=O)O [OA, 9(Z)-Octadecenoic acid]		near-baseline	None	not associated with changes in cell viability				
CCCCCCCCCCCCCCCC(=O)O [PA, Hexadecanoic acid]		significant reduction of ER Ca^2+ levels	upregulation of ATF4 and CHOP protein abundance; also recorded: inducing ATF4 and CHOP		translocated to the nucleus			
CCCCCCCCCCC/C=C\CCCCC(=O)O [PSA, petroselenic acid]		near-baseline	None		moderate RELA translocation to the nucleus			not associated with changes in cell viability

From patent US20220404336A1, “COMPOSITIONS, METHODS AND USES FOR FREE FATTY ACID SCREENING OF CELLS AT SCALE” (priority 2019, published 2022)
